Data from patent US20250360145A1, “CSF-1R INHIBITORS AND USES THEREOF” (Myrobalan Therapeutics, Inc., priority 2022, published 2025).
Like-named read-outs stand apart in the source and are kept apart here.

Assays:
[1] = test system: EOC2 cell; assay: Cell proliferation assay, EOC2; format: cell-based, mouse
[2] = test system: Ba/F3_CSF-1R (stably expressing human CSF-1R kinase); assay: Cell proliferation assay, Ba/F3_CSF-1R; format: cell-based
[3] = biological target: CSF-1R (Homo sapiens (Human), UniProt P07333); assay: Biochemical HTRF kinase assay, CSF-1R; conditions: Table 2; recombinant human CSF-1R;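 further: enzyme incubated with inhibitor plus a substrate and ATP mix for one hour at room temperature before HTRF detection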
[4] = Mus musculus, 72 h, EOC2 cells, 72 hours treatment, read-out: ECO2 EC50
[5] = Ba/F3_CSF-1R cells, 72 hours treatment, read-out: CSF-1R BaF3 EC50
[6] = EOC2 cells, 72 hours treatment, read-out: ECO2 EC50
[7] = BaF3, 72 h, Ba/F3_CSF-1R cells, 72 hours treatment, read-out: CSF-1R BaF3 EC50

Sequence of CSF-1R (P07333 20-972): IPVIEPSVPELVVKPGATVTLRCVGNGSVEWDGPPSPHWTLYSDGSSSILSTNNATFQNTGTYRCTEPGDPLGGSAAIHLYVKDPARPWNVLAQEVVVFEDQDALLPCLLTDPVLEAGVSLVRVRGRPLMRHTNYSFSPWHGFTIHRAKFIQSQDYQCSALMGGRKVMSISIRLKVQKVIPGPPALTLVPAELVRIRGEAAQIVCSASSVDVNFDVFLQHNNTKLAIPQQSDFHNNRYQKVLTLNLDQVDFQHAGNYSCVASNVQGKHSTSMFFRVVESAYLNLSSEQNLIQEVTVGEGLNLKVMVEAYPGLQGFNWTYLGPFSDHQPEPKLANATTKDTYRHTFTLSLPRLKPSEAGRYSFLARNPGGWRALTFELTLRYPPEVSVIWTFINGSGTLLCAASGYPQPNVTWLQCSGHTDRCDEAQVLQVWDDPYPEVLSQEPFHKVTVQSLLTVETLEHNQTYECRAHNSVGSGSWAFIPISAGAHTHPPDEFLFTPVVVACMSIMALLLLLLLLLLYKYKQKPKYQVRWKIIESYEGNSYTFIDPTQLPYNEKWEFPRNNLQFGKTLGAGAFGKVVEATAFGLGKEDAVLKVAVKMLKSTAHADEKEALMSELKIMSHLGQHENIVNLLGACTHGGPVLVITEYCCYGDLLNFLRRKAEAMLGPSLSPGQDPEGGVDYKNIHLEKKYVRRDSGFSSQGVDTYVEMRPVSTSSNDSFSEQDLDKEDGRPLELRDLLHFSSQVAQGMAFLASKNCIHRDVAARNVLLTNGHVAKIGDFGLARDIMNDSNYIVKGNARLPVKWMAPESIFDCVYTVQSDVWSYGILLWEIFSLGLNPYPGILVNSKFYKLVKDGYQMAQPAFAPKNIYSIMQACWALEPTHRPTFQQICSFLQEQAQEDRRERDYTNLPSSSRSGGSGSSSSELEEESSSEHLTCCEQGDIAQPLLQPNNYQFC

Compound: COc1cnc2c(Cc3cnc(OCc4cnc5c(c4)CC[C@H]5OC)c(OC)c3)ccnc2c1 (stereo in doubt) [Example 104]
- EC50 [1, 4]: 41 nM
- EC50 [2, 5]: 53.2 nM
- IC50 [3]: 2.4 nM

Compound: COc1cnc2c(Cc3cnc(OCc4cnc5c(c4)CC[C@H]5OC)c(OC)c3)ccnc2c1 (stereo in doubt) [Example 105]
- EC50 [1, 6]: 65 nM
- EC50 [2, 5]: 108 nM
- IC50 [3]: 2.4 nM

Compound: COc1cnc2c(Cc3cnc(OCc4cc5n(n4)CCO[C@H]5C)c(OC)c3)ccnc2c1 (stereo in doubt) [Example 114]
- EC50 [1, 6]: 37.9 nM
- EC50 [2, 5]: 75.7 nM
- IC50 [3]: 1.7 nM

Compound: COc1cnc2c(Cc3cnc(OCc4cc5n(n4)CCO[C@H]5C)c(OC)c3)ccnc2c1 (stereo in doubt) [Example 115]
- EC50 [1, 6]: 81.9 nM
- EC50 [2, 5]: 158 nM
- IC50 [3]: 4 nM

Compound: COc1ccc(COc2ccc(Cc3ccnc4cc(OC)ccc34)cc2OC)cc1 [Example 1]
- EC50 [1, 4]: 42 nM
- EC50 [2, 7]: 42.6 nM

Compound: COc1ccc(COc2ccc(Cc3ccnc4cnccc34)cc2OC)cc1 [Example 2, 4-(3-methoxy-4-((4-methoxybenzyl)oxy)benzyl)-1,7-naphthyridine]
- EC50 [1, 4]: 126 nM
- EC50 [2, 7]: 75 nM
- IC50 [3]: 13.4 nM

Compound: COc1ccc(COc2ccc(Cc3ccnc4ccccc34)cc2OC)cc1 [Example 3]
- EC50 [2, 7]: 89.2 nM

Compound: COc1ccc(COc2ccc(Cc3ccnc4cc(OC)cnc34)cc2OC)cc1 [Example 4]
- EC50 [1, 4]: 22.6 nM
- EC50 [2, 7]: 44.6 nM
- IC50 [3]: 8.7 nM

Compound: COc1ccc(COc2ccc(Cc3ncnc4cc(OC)ccc34)cc2OC)cc1 [Example 5]
- EC50 [1, 4]: 310 nM
- EC50 [2, 7]: 263 nM
- IC50 [3]: 21 nM

Compound: COc1ccc2c(Cc3ccc(OCc4ccn5ccnc5c4)c(OC)c3)ccnc2c1 [Example 6, 4-(4-(imidazo[1,2-a]pyridin-7-ylmethoxy)-3-methoxybenzyl)-7-methoxy quinoline]
- EC50 [1, 4]: 592 nM
- EC50 [2, 7]: 551 nM
- IC50 [3]: 8.2 nM

Compound: COc1ccc2c(Cc3ccc(OCc4ccc5nccn5c4)c(OC)c3)ccnc2c1 [Example 7]
- EC50 [1, 4]: 328 nM
- EC50 [2, 7]: 305 nM
- IC50 [3]: 5.3 nM

Compound: COc1ccc2c(Cc3ccc(OCc4cccnc4)c(OC)c3)ccnc2c1 [Example 8]
- EC50 [2, 7]: 546 nM

Compound: COc1ccc2c(Cc3ccc(OCc4ccccn4)c(OC)c3)ccnc2c1 [Example 9]
- EC50 [2, 7]: 901 nM
- IC50 [3]: 169 nM

Compound: COc1ccc2c(Cc3ccc(OCc4ccncc4)c(OC)c3)ccnc2c1 [Example 10]
- EC50 [2, 7]: > 1000 nM
- IC50 [3]: 118 nM

Compound: COc1ccc2c(Cc3ccc(OCc4nc5ccccc5n4C)c(OC)c3)ccnc2c1 [Example 11]
- EC50 [2, 7]: > 1000 nM
- IC50 [3]: 149 nM

Compound: COc1ccc2c(Cc3ccc(OCc4ccc5cnn(C)c5c4)c(OC)c3)ccnc2c1 [Example 12]
- EC50 [2, 7]: > 1000 nM
- IC50 [3]: 299 nM

Compound: COc1ccc(COc2ncc(Cc3ccnc4cc(OC)ccc34)cc2OC)nc1 [Example 13, 7-methoxy-4-((5-methoxy-6-((5-methoxypyridin-2-yl)methoxy)pyridin-3-yl)methyl)quinolone]
- EC50 [1, 4]: 151 nM
- EC50 [2, 7]: 176 nM

Compound: COc1ccc2c(Cc3ccc(OCc4ccc(C(F)(F)F)cc4)c(OC)c3)ccnc2c1 [Example 14]
- EC50 [1, 4]: 132 nM
- EC50 [2, 7]: 157 nM
- IC50 [3]: 118 nM

Compound: COc1ccc(COc2ccc(Cc3ccnc4ccncc34)cc2OC)cc1 [Example 17]
- EC50 [1, 4]: 180 nM
- EC50 [2, 7]: 185 nM
- IC50 [3]: 5.7 nM

Compound: COc1ccc2c(Cc3ccc(OCc4cn5ccccc5n4)c(OC)c3)ccnc2c1 [Example 18, 4-(4-(imidazo[1,2-a]pyridin-2-ylmethoxy)-3-methoxybenzyl)-7-methoxy quinoline]
- EC50 [1, 4]: 272 nM
- EC50 [2, 7]: 196 nM
- IC50 [3]: 9.4 nM

Compound: COc1ccc(COc2ncc(Cc3ccnc4cnccc34)cc2OC)nc1 [Example 19, 4-((5-methoxy-6-((5-methoxypyridin-2-yl)methoxy)pyridin-3-yl)methyl)-1,7-naphthyridine]
- EC50 [2, 7]: > 1000 nM
- IC50 [3]: 47.6 nM

Compound: COc1ccc2c(Cc3ccc(OCc4ccc5ccnn5c4)c(OC)c3)ccnc2c1 [Example 20]
- EC50 [1, 4]: 130 nM
- EC50 [2, 7]: 134 nM
- IC50 [3]: 11 nM

Compound: COc1ccc2c(Cc3ccc(OCc4ccc5ncnn5c4)c(OC)c3)ccnc2c1 [Example 21]
- EC50 [1, 4]: 492 nM
- EC50 [2, 7]: 509 nM
- IC50 [3]: 12.6 nM

Compound: COc1ccc(COc2ncc(Cc3ccnc4cncnc34)cc2OC)nc1 [Example 22, 8-((5-methoxy-6-((5-methoxypyridin-2-yl)methoxy)pyridin-3-yl)methyl)pyrido[3,2-d]pyrimidine]
- EC50 [2, 7]: > 1000 nM
- IC50 [3]: 64 nM

Compound: COc1ccc2c(Cc3ccc(OCc4cc(C)nn4C)c(OC)c3)ccnc2c1 [Example 23]
- EC50 [2, 7]: 323 nM
- IC50 [3]: 8 nM

Compound: COc1ccc(COc2ccc(Cc3ccnc4ccc(F)cc34)cc2OC)cc1 [Example 24]
- EC50 [1, 4]: 239 nM
- EC50 [2, 7]: 177 nM
- IC50 [3]: 25 nM

Compound: COc1ccc2c(Cc3ccc(OCc4ccn(C)c(=O)c4)c(OC)c3)ccnc2c1 [Example 25]
- EC50 [2, 7]: 583 nM
- IC50 [3]: 40 nM

Compound: COc1ccc2c(Cc3ccc(OCc4ccc(=O)n(C)c4)c(OC)c3)ccnc2c1 [Example 26]
- EC50 [2, 7]: 283 nM
- IC50 [3]: 5 nM

Compound: COc1ccc2c(Cc3ccc(OCc4cccc(C(F)(F)F)c4)c(OC)c3)ccnc2c1 [Example 27]
- EC50 [2, 7]: 207 nM
- IC50 [3]: 117 nM

Compound: COc1cccc(COc2ccc(Cc3ccnc4cc(OC)ccc34)cc2OC)c1 [Example 28]
- EC50 [2, 7]: 356 nM
- IC50 [3]: 25.7 nM

Compound: COc1ccc2c(Cc3ccc(OCc4ccccc4OC)c(OC)c3)ccnc2c1 [Example 29]
- EC50 [2, 7]: 873 nM
- IC50 [3]: 73.9 nM

Compound: COc1ccc2c(Cc3ccc(OCc4ccn5nccc5c4)c(OC)c3)ccnc2c1 [Example 30]
- EC50 [1, 4]: 249 nM
- EC50 [2, 7]: 214 nM
- IC50 [3]: 7.9 nM

Compound: COc1ccc2c(Cc3cnc(OCc4cnn(C)c4)c(OC)c3)ccnc2c1 [Example 31]
- EC50 [1, 4]: > 1000 nM
- EC50 [2, 7]: > 1000 nM
- IC50 [3]: 21.3 nM

Compound: COc1cnc2c(Cc3cnc(OCc4ccc(OC)nn4)c(OC)c3)ccnc2c1 [Example 32, 3-methoxy-8-((5-methoxy-6-((6-methoxypyridazin-3-yl)methoxy)pyridin-3-yl)methyl)-1,5-naphthyridine]
- EC50 [1, 4]: 129 nM
- EC50 [2, 7]: 267 nM
- IC50 [3]: 20.1 nM

Compound: COc1ccc2c(Cc3ccc(OCc4ccc5c(c4)OC(F)(F)O5)c(OC)c3)ccnc2c1 [Example 33]
- EC50 [1, 4]: 89.5 nM
- EC50 [2, 7]: 218 nM
- IC50 [3]: 203 nM

Compound: COc1ccc2c(Cc3ccc(OCc4cc(C)no4)c(OC)c3)ccnc2c1 [Example 34]
- EC50 [1, 4]: 462 nM
- EC50 [2, 7]: 493 nM
- IC50 [3]: 23.2 nM

Compound: COc1ccc2c(Cc3ccc(OCc4cnc(C)s4)c(OC)c3)ccnc2c1 [Example 35]
- EC50 [1, 4]: 392 nM
- EC50 [2, 7]: 449 nM
- IC50 [3]: 16.1 nM

Compound: COc1ccc2c(Cc3ccc(OCc4cc(C)on4)c(OC)c3)ccnc2c1 [Example 36]
- EC50 [1, 4]: 486 nM
- EC50 [2, 7]: 637 nM
- IC50 [3]: 39.8 nM

Compound: COc1cnc2c(Cc3cnc(OCc4cnn(C)c4)c(OC)c3)ccnc2c1 [Example 37]
- EC50 [1, 4]: > 1000 nM
- EC50 [2, 7]: > 1000 nM

Compound: COc1cnc2c(Cc3cnc(OCc4ccc(Cl)cn4)c(OC)c3)ccnc2c1 [Example 58]
- EC50 [1, 4]: 42.9 nM
- EC50 [2, 7]: 93.9 nM

Compound: COc1ccc(COc2ncc(Cc3ccnc4cc(Cl)cnc34)cc2OC)nc1 [Example 62, 3-chloro-8-((5-methoxy-6-((5-methoxypyridin-2-yl)methoxy)pyridin-3-yl)methyl)-1,5-naphthyridine]
- EC50 ([1]; Mus musculus, 72 h, read-out: ECO2 EC50 (nM)): 496 nM
- EC50 ([2]; BaF3, 72 h, read-out: CSF-1R BaF3 EC50 (nM)): 177 nM

Compound: COc1ccc(COc2ncc(Cc3ccnc4cc(N5CCOCC5)cnc34)cc2OC)nc1 [Example 119, 4-(8-((5-methoxy-6-((5-methoxypyridin-2-yl)methoxy)pyridin-3-yl)methyl)-1,5-naphthyridin-3-yl)morpholine]
- EC50 [1, 4]: 8 nM
- EC50 [2, 7]: 15.9 nM

Compound: COc1ccc(COc2ncc(Cc3ccnc4cc(N5CC6CC(C5)O6)cnc34)cc2OC)nc1 [Example 131]
- EC50 [1, 4]: 6.7 nM
- EC50 [2, 7]: 9.9 nM

Compound: COc1ccc(COc2ncc(Cc3ccnc4cc(C5CC5)cnc34)cc2OC)nc1 [Example 137]
- EC50 [1, 4]: 65 nM
- EC50 [2, 7]: 46.7 nM

Compound: COc1cnc2c(Cc3ccc4nc(N5CCC(OC)CC5)cnc4c3)ccnc2c1 [Example 153, 3-methoxy-8-[[2-(4-methoxy-1-piperidyl)quinoxalin-6-yl]methyl]-1,5-naphthyridine]
- EC50 [1, 4]: > 1000 nM
- EC50 [2, 7]: > 1000 nM
